The pKd is the negative decadic logarithm of the Kd, by convention in mol/L. Read a high pKd as a low Kd.

The values below come from patent US20250186541A1, “DLL3 TARGETING PEPTIDES AND CONSTRUCTS THEREOF” (MARIANA ONCOLOGY INC., priority 2023, published 2025).

pKd: −log10 of the molar value. Numbered stars: 1 amine (or outer) side, 2 acyl side, 3 side chain; on linkers, the order of the positions; unused ones are H or OH. Bridge positions count the residues as written; N and C are the ends. Square brackets hold non-standard residues; d marks the D form. Side chains are listed from the residue outwards. Peptide text beside a SMILES is read from it. * marks the point of attachment. X2 = O=C(O)CN1CCN(CC(=O)O)CCN(CC(=O)N[C@@H](CCCCN*)C(=O)O)CCN(CC(=O)O)CC1; DOTA = O=C(O)CN1CCN(CC(=O)O)CCN(CC(=O)*)CCN(CC(=O)O)CC1; 1Nal = N[C@@H](Cc1cccc2ccccc12)C(=O)O; 2Nal = N[C@@H](Cc1ccc2ccccc2c1)C(=O)O; Phe(2-Me) = Cc1ccccc1C[C@H](N)C(=O)O; mXylylene = c1cc(C[*:1])cc(C[*:2])c1; Trx = NC[C@H]1CC[C@H](C(=O)O)CC1; tBuAla = CC(C)(C)C[C@H](N)C(=O)O; Chg = N[C@H](C(=O)O)C1CCCCC1; αMeP = C[C@@]1(C(=O)O)CCCN1; CH2 = C([*:1])[*:2]; Ahx = NCCCCCC(=O)O

This experiment deals with T1, human DLL3 (Homo sapiens, UniProt Q9NYJ7).
T1 construct: biotin (biotinylated)
T1 sequence (Q9NYJ7 27-618): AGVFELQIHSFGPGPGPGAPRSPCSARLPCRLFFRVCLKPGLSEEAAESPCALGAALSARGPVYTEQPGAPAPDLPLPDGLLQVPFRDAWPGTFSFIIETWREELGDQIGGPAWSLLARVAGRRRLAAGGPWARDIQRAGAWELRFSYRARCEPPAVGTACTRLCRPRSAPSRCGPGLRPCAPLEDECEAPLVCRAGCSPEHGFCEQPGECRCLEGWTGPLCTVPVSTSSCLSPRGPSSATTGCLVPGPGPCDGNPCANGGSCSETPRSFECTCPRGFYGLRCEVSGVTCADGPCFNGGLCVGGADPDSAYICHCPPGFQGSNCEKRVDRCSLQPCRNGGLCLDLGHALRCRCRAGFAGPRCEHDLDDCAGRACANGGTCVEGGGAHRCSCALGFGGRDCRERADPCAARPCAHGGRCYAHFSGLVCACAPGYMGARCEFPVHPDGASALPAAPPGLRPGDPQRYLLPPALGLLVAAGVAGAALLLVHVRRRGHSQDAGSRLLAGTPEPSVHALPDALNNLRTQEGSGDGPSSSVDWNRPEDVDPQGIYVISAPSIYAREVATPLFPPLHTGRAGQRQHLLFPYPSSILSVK
Briefly: Affinity determination by Surface Plasmon Resonance (SPR), Biacore, 1:1 binding model. Conditions: biotinylated human DLL3 on streptavidin chip, 25° C.; NB = nonbinding. As to the method: Example 3. Binding Affinity of Targeting Moieties Polypeptides to DLL3 Affinity Determination by Surface Plasmon Resonance (SPR)
SPR studies were performed on the compounds disclosed herein using the following protocol. […] Biotinylated target ligand human DLL3 was immobilized on a streptavidin sensor chip. A reference surface was set up for nonspecific binding and refractive index changes. For analysis of the kinetics of interactions, varying concentrations of samples were injected at a flow rate of 100 μL/min using running buffer containing 20 mM phosphate buffer with 2.7 mM KCl, 137 mM NaCl, 0.05% Surfactant P20 and 2% DMSO. Sensorgram curves were fitted with 1:1 binding model, and affinity and kinetic parameters were obtained using Biacore Insight evaluation 4.0. software.
For the molecule `CC(=O)N[C@H](C)C(=O)N[C@@H](CO)C(=O)N[C@@](C)(CC(=O)O)C(=O)N[C@H]1C/C=C/C[C@@H](C(=O)N2CCC[C@@]2(C)C(=O)N[C@@H](Cc2ccccc2)C(=O)N[C@@H](CC(=O)O)C(N)=O)NC(=O)[C@H](CC(N)=O)NC(=O)[C@H](Cc2ccc3ccccc3c2)NC(=O)[C@H](Cc2ccc(CNC(=O)CN3CCN(CC(=O)O)CCN(CC(=O)O)CCN(CC(=O)O)CC3)cc2)NC(=O)[C@H](CC(C)(C)C)NC(=O)[C@H](Cc2cccc3ccccc23)NC1=O` (single isomer, unassigned) [Cpd #193, Ac-(D-Ala)-S-(aMe-Asp)-AllyG(4)-(1Nal)-(t-Bu-Ala)-[PAF(DOTA)]-(2Nal)-N-AllyG(4)-(aMe-P)-F-D-CONH2], the negative-log Kd (pKd) was 9.95.

Turning to `CSCC[C@H](NC(C)=O)C(=O)N[C@@H](CO)C(=O)N[C@@H](CC(=O)O)C(=O)N[C@H]1CSSC[C@@H](C(=O)N2CCC[C@H]2C(=O)N[C@@H](Cc2ccccc2)C(=O)N[C@@H](CC(=O)O)C(N)=O)NC(=O)[C@H](CC(N)=O)NC(=O)[C@H](Cc2c[nH]c3ccccc23)NC(=O)[C@H](CCC(N)=O)NC(=O)[C@H](CC(C)C)NC(=O)[C@H](Cc2c[nH]c3ccccc23)NC1=O` [Cpd #1, Ac-M-S-D-C(3)-W-L-Q-W-N-C(3)-P-F-D-CONH2] (Ac-MSDCWLQWNCPFD-NH2; disulfide 4-10), the negative-log Kd (pKd) is 7.96.

Consider `CSCC[C@H](NC(=O)CCCCCNC(=O)CN1CCN(CC(=O)O)CCN(CC(=O)O)CCN(CC(=O)O)CC1)C(=O)N[C@@H](CO)C(=O)N[C@@H](CC(=O)O)C(=O)N[C@H]1CSSC[C@@H](C(=O)N2CCC[C@H]2C(=O)N[C@@H](Cc2ccccc2)C(=O)N[C@@H](CC(=O)O)C(N)=O)NC(=O)[C@H](CC(N)=O)NC(=O)[C@H](Cc2c[nH]c3ccccc23)NC(=O)[C@H](CCC(N)=O)NC(=O)[C@H](CC(C)C)NC(=O)[C@H](Cc2c[nH]c3ccccc23)NC1=O` [Cpd #7, DOTA-Ahx-M-S-D-C(3)-W-L-Q-W-N-C(3)-P-F-D-CONH2] ({DOTA-Ahx}-MSDCWLQWNCPFD-NH2; disulfide 4-10), for which the negative logarithm of the Kd (pKd) is 7.85.

On to `CC(=O)N[C@@H](CO)C(=O)N[C@@H](CC(=O)O)C(=O)N[C@H]1CSCSC[C@@H](C(=O)N2CCC[C@H]2C(=O)N[C@@H](Cc2ccccc2)C(=O)N[C@@H](CC(=O)O)C(=O)N[C@H](CCCCNC(=O)CN2CCN(CC(=O)O)CCN(CC(=O)O)CCN(CC(=O)O)CC2)C(N)=O)NC(=O)[C@H](CC(N)=O)NC(=O)[C@H](Cc2c[nH]c3ccccc23)NC(=O)[C@H](CCC(N)=O)NC(=O)[C@H](CC(C)C)NC(=O)[C@H](Cc2c[nH]c3ccccc23)NC1=O` [Cpd #66, Ac-S-D-C(1)-W-L-Q-W-N-C(1)-P-F-D-D-Lys(DOTA)-CONH2] (Ac-SDCWLQWNCPFD[dK](DOTA)-NH2; linker 3-9 via CH2), for which the pKd was below 6.52.

In turn, `CC(=O)N[C@H](C(=O)N[C@@H](CO)C(=O)N[C@@H](CC(=O)O)C(=O)N[C@H]1CSCc2cccc(c2)CSC[C@@H](C(=O)N2CCC[C@@]2(C)C(=O)N[C@@H](Cc2ccccc2)C(=O)N[C@@H](CC(=O)O)C(=O)N[C@H](CCCCNC(=O)CN2CCN(CC(=O)O)CCN(CC(=O)O)CCN(CC(=O)O)CC2)C(N)=O)NC(=O)[C@H](CC(N)=O)NC(=O)[C@H](Cc2c[nH]c3ccccc23)NC(=O)[C@H](CCC(N)=O)NC(=O)[C@H](CC(C)C)NC(=O)[C@H](Cc2cccc3ccccc23)NC1=O)C1CCCCC1` [Cpd #144, Ac-(Chg)-S-D-C(mDBX)-(1Nal)-L-Q-W-N-C(2)-(aMe-P)-F-D-D-Lys(DOTA)-CONH2] (Ac-[Chg]SDC[1Nal]LQWNC[αMeP]FD[dK](DOTA)-NH2; linker 4-10 via mXylylene) showed a pKd below 7.52.

`CNC(=O)[C@@H](CCCCNC(=O)CN1CCN(CC(=O)O)CCN(CC(=O)O)CCN(CC(=O)O)CC1)NC(=O)[C@H](CC(=O)O)NC(=O)[C@H](Cc1ccccc1)NC(=O)[C@]1(C)CCCN1C(=O)[C@@H]1CSSC[C@H](NC(=O)[C@H](CC(=O)O)NC(=O)[C@H](CO)NC(=O)[C@@H](C)NC(C)=O)C(=O)N[C@@H](Cc2cccc3ccccc23)C(=O)N[C@@H](CC(C)(C)C)C(=O)N[C@@H](CCC(N)=O)C(=O)N[C@@H](Cc2ccc3ccccc3c2)C(=O)N[C@@H](CC(N)=O)C(=O)N1` [Cpd #147, Ac-(D-Ala)-S-D-C(3)-(1Nal)-(t-Bu-Ala)-Q-(2Nal)-N-C(3)-(aMe-P)-F -D-[D-Lys(DOTA)]-CONHMe] (Ac-[dA]SDC[1Nal][tBuAla]Q[2Nal]NC[αMeP]FD[dK](DOTA)-NHMe; disulfide 4-10) had a pKd of 9.89.

Consider `CC(=O)N[C@H](C)C(=O)N[C@@H](CO)C(=O)N[C@@H](CC(=O)O)C(=O)N[C@H]1CSSC[C@@H](C(=O)N2CCC[C@@]2(C)C(=O)N[C@@H](Cc2ccccc2C)C(=O)N[C@@H](CC(=O)O)C(=O)N[C@H](CCCCNC(=O)CN2CCN(CC(=O)O)CCN(CC(=O)O)CCN(CC(=O)O)CC2)C(=O)O)NC(=O)[C@H](CC(N)=O)NC(=O)[C@H](Cc2ccc3ccccc3c2)NC(=O)[C@H](CCC(N)=O)NC(=O)[C@H](CC(C)(C)C)NC(=O)[C@H](Cc2cccc3ccccc23)NC1=O` [Cpd #150, Ac-(D-Ala)-S-D-C(3)-(1Nal)-(t-Bu-Ala)-Q-(2Nal)-N-C(3)-(aMe-P)-(2Me-F)-D-[D-Lys(DOTA)]-COOH] (Ac-[dA]SDC[1Nal][tBuAla]Q[2Nal]NC[αMeP][Phe(2-Me)]D[dK](DOTA)-OH; disulfide 4-10), for which the pKd is 9.89.

Turning to `CC(=O)N[C@H](C)C(=O)N[C@H](CO)C(=O)N[C@@H](CC(=O)O)C(=O)N[C@H]1CSSC[C@@H](C(=O)N2CCC[C@@]2(C)C(=O)N[C@@H](Cc2ccccc2C)C(=O)N[C@@H](CC(=O)O)C(N)=O)NC(=O)[C@H](CC(N)=O)NC(=O)[C@H](Cc2ccc3ccccc3c2)NC(=O)[C@H](CCCCNC(=O)[C@H]2CC[C@H](CNC(=O)CN3CCN(CC(=O)O)CCN(CC(=O)O)CCN(CC(=O)O)CC3)CC2)NC(=O)[C@H](CC(C)(C)C)NC(=O)[C@H](Cc2cccc3ccccc23)NC1=O` [Cpd #151, Ac-(D-Ala)-S-D-C(3)-(1Nal)-(t-Bu-Ala)-[L-Lys(Chx-DOTA)]-(2Nal)-N-C(3)-(aMe-P)-(2Me-F)-D-CONH2] (Ac-[dA][dS]DC[1Nal][tBuAla]K([Trx-DOTA])[2Nal]NC[αMeP][Phe(2-Me)]D-NH2; disulfide 4-10), the negative logarithm of the Kd (pKd) was 9.55.

`CC(=O)N[C@H](C)C(=O)N[C@@H](CO)C(=O)N[C@@H](CC(=O)O)C(=O)N[C@H]1CSSC[C@@H](C(=O)N2CCC[C@@]2(C)C(=O)N[C@@H](Cc2ccccc2C)C(=O)N[C@@H](CC(=O)O)C(N)=O)NC(=O)[C@H](CC(N)=O)NC(=O)[C@H](Cc2ccc3ccccc3c2)NC(=O)[C@H](CCC(=O)NCCCC[C@H](NC(=O)CN2CCN(CC(=O)O)CCN(CC(=O)O)CCN(CC(=O)O)CC2)C(=O)O)NC(=O)[C@H](CC(C)(C)C)NC(=O)[C@H](Cc2cccc3ccccc23)NC1=O` [Cpd #153, Ac-(D-Ala)-S-D-C(3)-(1Nal)-(t-Bu-Ala)-[Glu(εLys(OH)-(DOTA))]-(2Nal)-N-C(3)-(aMe-P)-(2Me-F)-D-CONH2] (Ac-[dA]SDC[1Nal][tBuAla]E(X2)[2Nal]NC[αMeP][Phe(2-Me)]D-NH2; disulfide 4-10) showed a pKd of 9.29.
